According to patent US20250241926A1, “HETEROCYCLIC COMPOUNDS FOR USE IN THE TREATMENT OF CANCER” (ARTIOS PHARMA LIMITED, priority 2021, published 2025):
Read-outs that look alike come from different tables or passages of the source.

Target: T1, Human Polθ polymerase domain (aa1820-2590) (Homo sapiens, UniProt O75417)
T1 construct: Human Polθ polymerase domain (aa1820-2590) was expressed in E. Coli; made in house; host or cells: E. coli
T1 sequence (O75417 1820-2590): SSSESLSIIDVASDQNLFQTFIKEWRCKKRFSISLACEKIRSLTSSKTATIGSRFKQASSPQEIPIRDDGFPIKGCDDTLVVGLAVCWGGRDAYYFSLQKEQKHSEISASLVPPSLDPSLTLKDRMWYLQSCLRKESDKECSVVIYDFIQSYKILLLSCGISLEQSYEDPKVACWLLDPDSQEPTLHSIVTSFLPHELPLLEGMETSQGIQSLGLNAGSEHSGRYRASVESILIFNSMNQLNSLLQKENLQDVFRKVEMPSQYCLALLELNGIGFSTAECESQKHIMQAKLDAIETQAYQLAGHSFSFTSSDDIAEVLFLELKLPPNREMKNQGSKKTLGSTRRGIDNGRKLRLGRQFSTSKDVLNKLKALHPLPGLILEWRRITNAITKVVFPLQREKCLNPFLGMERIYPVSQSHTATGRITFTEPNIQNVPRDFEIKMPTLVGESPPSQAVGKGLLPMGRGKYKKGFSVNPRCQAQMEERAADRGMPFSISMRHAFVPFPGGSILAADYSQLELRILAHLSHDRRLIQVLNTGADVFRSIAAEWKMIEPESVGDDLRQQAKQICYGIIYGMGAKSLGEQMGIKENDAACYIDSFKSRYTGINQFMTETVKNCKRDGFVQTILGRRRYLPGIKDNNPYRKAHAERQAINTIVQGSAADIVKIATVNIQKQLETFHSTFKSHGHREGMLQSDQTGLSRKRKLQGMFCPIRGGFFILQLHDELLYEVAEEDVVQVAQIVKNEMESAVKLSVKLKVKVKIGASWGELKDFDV
Assay: Polθ Polymerase Domain Kinact/Kl Assay (PicoGreen)
Type: biochemical
Settings: covalent inhibitors, kobs vs [I] fit, 0.8 nM Polθ, 100 nM DNA substrate
Procedure, shortened: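 E. coli-expressed enzyme (0.8 nM final) was run with 100 nM annealed DNA substrate and dNTPs in Tris pH 7.5 buffer (1% DMSO), with EDTA stops across a time course up to 60 min. Synthesised DNA was read by PicoGreen fluorescence. kobs per inhibitor concentration was fitted from the time courses, and Kinact and KI came from the kobs-vs-[I] plot.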

Row | kinact/KI [µM⁻¹ s⁻¹] | kinact/KI (read-out: Kinact/KI) [µM⁻¹ s⁻¹] | Molecule
1 | 0.77 |  | Cc1cc(C(F)(F)F)c(C#N)c(N[C@H]2CCN(CC(O)CN3CCN(C(=O)/C=C/CN(C)C)CC3)c3c(F)cccc3N(C)C2=O)n1 (mixture of isomers) [Example 32A, 2-(((S)-6-((S/R)-3-(4-((E)-4-(Dimethylamino)but-2-enoyl)piperazin-1-yl)-2-hydroxypropyl)-7-fluoro-1-methyl-2-oxo-1,2,3,4,5,6-hexahydrobenzo[b][1,4]diazocin-3-yl)amino)-6-methyl-4-(trifluoromethyl)nicotinonitrile]
2 | 5.7 |  | (S,E)-2-((6-(2-((2- (4-(Dimethyl- amino)but-2-eno- yl)-2-azaspiro[3.3] heptan-6-yl)-oxy)- ethyl)-7-fluoro-1- methyl-2-oxo- 1,2,3,4,5,6-hexa- hydrobenzo[b] [1,4]diazocin-3- yl)amino)-6-meth- yl-4-(trifluoro- methyl)nicotino- nitrile [Example 45]
3 | 0.56 |  | (S,E)-2-((6-(2-(2- (4-(Dimethyl- amino)but-2-eno- yl)-5-methyl-7- oxo-2,5,8-triaza- spiro[3.5]nonan-8- yl)ethyl)-7-fluoro- 1-methyl-2-oxo- 1,2,3,4,5,6-hexa- hydrobenzo[b] [1,4]diazocin-3- yl)amino)-6-meth- yl-4-(trifluoro- methyl)nicotino- nitrile [Example 46]
4 |  | 0.63 | Cc1cc(C(F)(F)F)c(C#N)c(N[C@H]2CCN(CCN3CC4(CN(C(=O)/C=C/CN(C)C)C4)OC3=O)c3c(F)cccc3N(C)C2=O)n1 [Example 24, (S,E)-2-((6-(2-(2-(4-(Dimethylamino)but-2-enoyl)-6-oxo-5-oxa-2,7-diazaspiro[3.4]octan-7-yl)ethyl)-7-fluoro-1-methyl-2-oxo-1,2,3,4,5,6-hexahydrobenzo[b][1,4]diazocin-3-yl)amino)-6-methyl-4-(trifluoromethyl)nicotinonitrile]
5 |  | 0.07 | C=CC(=O)N1CC(OCCN2CC[C@H](Nc3nc(C)cc(C(F)(F)F)c3C#N)C(=O)N(C)c3ccccc32)C1 [Example 51, (S)-2-((6-(2-((1-Acryloylazetidin-3-yl)oxy)ethyl)-1-methyl-2-oxo-1,2,3,4,5,6-hexahydrobenzo[b][1,4]diazocin-3-yl)amino)-6-methyl-4-(trifluoromethyl)nicotinonitrile]
6 | 0.63 |  | C=CC(=O)N1CCN2CCN(CCN3CC[C@H](Nc4nc(C)cc(C(F)(F)F)c4C#N)C(=O)N(C)c4cccc(F)c43)CC2C1 (mixture of isomers) [Example 72B, 2-(((S)-6-(2-((S/R)-8-acryloyloctahydro-2H-pyrazino[1,2-a]pyrazin-2-yl)ethyl)-7-fluoro-1-methyl-2-oxo-1,2,3,4,5,6-hexahydrobenzo[b][1,4]diazocin-3-yl)amino)-6-methyl-4-(trifluoromethyl)nicotinonitrile]
7 |  | 0.12 | C=CC(=O)N1CCN(CC(O)CN2CC[C@H](Nc3nc(C)cc(C(F)(F)F)c3C#N)C(=O)N(C)c3ccc(F)cc32)CC1 (single isomer, unassigned) [Example 33B]
8 |  | 1.8 | C=CC(=O)N1CC2(CN(CCN3CC[C@H](Nc4nc(C)cc(C(F)(F)F)c4C#N)C(=O)N(C)c4cccc(Cl)c43)C[C@@H](C)N2)C1 [Example 64, 2-(((S)-6-(2-((R)-2-Acryloyl-6-methyl-2,5,8-triazaspiro[3.5]nonan-8-yl)ethyl)-7-chloro-1-methyl-2-oxo-1,2,3,4,5,6-hexahydrobenzo[b][1,4]diazocin-3-yl)amino)-6-methyl-4-(trifluoromethyl)nicotinonitrile]
